Measured values reported in patent US10188108B2, “Fused bicyclic heterocycle derivatives as pesticides” (BAYER CROPSCIENCE AKTIENGESELLSCHAFT, priority 2015, dated 2019).
Like-named read-outs stand apart in the source and are kept apart here.

Experiments:
[1] = tested on: Spodoptera frugiperda; assay: Spodoptera frugiperda - spray test; type: in vivo; conditions: 500 g/ha, after 7 days, caterpillars on maize leaf discs
Procedure: (§1) • Solvent: 78.0 parts by weight of acetone • 1.5 parts by weight of dimethylformamide • Emulsifier: alkylaryl polyglycol ether
(§2) To produce a suitable preparation of active compound, 1 part by weight of active compound is dissolved using the stated parts by weight of solvent and made up with water containing an emulsifier concentration of 1000 ppm until the desired concentration is attained. To produce further test concentrations, the preparation is diluted with emulsifier-containing water.
Leaf discs of maize (Zea mays) are sprayed with an active compound preparation of the desired concentration and, after drying, populated with caterpillars of the armyworm (Spodoptera frugiperda).
After 7 days, the efficacy in % is determined. 100% means that all the caterpillars have been killed; 0% means that no caterpillars have been killed.

[2] = log P by HPLC on a reversed-phase column (C 18), EEC Directive 79/831 Annex V.A8; type: physicochemical; conditions: for chromatographic logP: reversed-phase HPLC column (C 18); for LOGP_NEUTRAL: pH 7.8, 0.001 molar aqueous ammonium hydrogencarbonate/acetonitrile
Procedure: The log P values are measured according to EEC Directive 79/831 Annex V.A8 by HPLC (high-performance liquid chromatography) on a reversed-phase column (C 18). Temperature: 55° C.
The LC-MS determination in the acidic range is effected at pH 2.7 using 0.1% aqueous formic acid and acetonitrile (contains 0.1% formic acid) as eluents; linear gradient from 10% acetonitrile to 95% acetonitrile. Called log P (HCOOH) in the table.
LC-MS determination in the neutral range is effected at pH 7.8 with 0.001 molar aqueous ammonium hydrogencarbonate solution and acetonitrile as eluents; linear gradient from 10% acetonitrile to 95% acetonitrile. Called log P (neutral) in the table.
Calibration is carried out using unbranched alkan-2-ones (having 3 to 16 carbon atoms) with known log P values (log P values determined on the basis of the retention times by linear interpolation between two successive alkanones).

[3] = tested on: Phaedon cochleariae; assay: Phaedon cochleariae - spray test; type: in vivo; conditions: after 7 days, larvae on Chinese cabbage leaf discs
Procedure: as §1, §2
After 7 days, the efficacy in % is determined. 100% means that all the beetle larvae have been killed; 0% means that no beetle larvae have been killed.

[4] = acidic range, pH 2.7, 0.1% aqueous formic acid/acetonitrile, 55° C.
[5] = neutral range, pH 7.8, value in preparation example text, read-out: log P (neutral)
[6] = acidic range, pH 2.7, value in preparation example text, read-out: log P (acidic)
[7] = acidic range, pH 2.7, 0.1% aqueous formic acid/acetonitrile, 55° C., read-out: LOGP_HCOOH

Compound	LOGP_HCOOH [2, 4]	LOGP_NEUTRAL ([2]; neutral range, 55° C.)	efficacy [1] [%]	efficacy ([3]; 500 g/ha) [%]	further results
CCSc1c(-c2nc3cc(C(F)(F)F)ccc3n2C)nc2cccc(C)n12 [Example I-26]	3.35	–	–	83	–
CCOC(=O)c1nc2ccccn2c1SCC [XXII-1, Ethyl 3-(ethylsulphanyl)imidazo[1,2-a]pyridine-2-carboxylate]	–	–	–	–	chromatographic logP [2, 5]: 2.05
CCSc1ccn2c(SCC)c(-c3nc4cc(C(F)(F)F)ccc4n3C)nc2c1 [Example I-32]	4.23	–	–	–	–
CCSc1c(-c2nc3cc(C(F)(F)F)ncc3n2C)nc2ccc(C)cn12 [Example I-45]	3.20	3.22	–	–	–
CCSc1c(-c2nc3cc(C(F)(F)F)ncc3n2C)nc2ccc(Cl)cn12 [Example I-3]	3.59	–	100	–	–
CCSc1cccc2nc(-c3nc4cc(C(F)(F)F)ccc4n3C)c(SCC)n12 [Example I-31]	3.95	–	–	–	–
CCSc1c(-c2nc3cc(C(F)(F)F)ccc3n2C)nc2ccccn12 [Example I-9]	3.25	3.41	–	100	–
CC[S+]([O-])c1c(-c2nc3cc(C(F)(F)F)ncc3n2C)nc2ccc(OC)cn12 (stereo not drawn) [Example I-55]	2.54	2.48	–	–	–
CCSc1cccn2c(SCC)c(-c3nc4cc(C(F)(F)F)ncc4n3C)nc12 [Example I-15]	3.99	3.93	–	–	–
CCS(=O)(=O)c1c(C(=O)O)nc2ccccn12 [XXIII-1, 3-(Ethylsulphonyl)imidazo[1,2-a]pyridine-2-carboxylic acid]	–	–	–	–	chromatographic logP [2, 6]: 0.54
CCSc1c(C(=O)Nc2cc(C(F)(F)F)cnc2Cl)nc2ccccn12 [XXVI-1, N-[2-Chloro-5-(trifluoromethyl)pyridin-3-yl]-3-(ethylsulphanyl)imidazo[1,2-a]pyridine-2-carboxamide]	–	–	–	–	chromatographic logP [2, 5]: 4.39
CCS(=O)(=O)c1c(-c2nc3cc4c(cc3[nH]2)OC(F)(F)O4)nc2ccccn12 [Example I-40, 6-[3-(Ethylsulphonyl)imidazo[1,2-a]pyridin-2-yl]-2,2-difluoro-5H-[1,3]dioxolo[4,5-f]benzimidazole]	–	2.59	–	100	chromatographic logP [2, 7]: 2.51; chromatographic logP [2, 5]: 2.59
CCSc1c(-c2nc3cc(C(F)(F)F)ncc3n2C)nc2c(C(F)(F)F)cccn12 [Example I-13]	1.40	3.71	100	100	–
CC[S+]([O-])c1c(-c2nc3cc(C(F)(F)F)ncc3n2C)nc2c(C(F)(F)F)cccn12 (stereo not drawn) [Example I-25]	3.29	3.21	100	100	–
Cn1c(-c2nc3ccccn3c2Cl)nc2cc(C(F)(F)F)ncc21 [Example V-1, 2-(3-Chloroimidazo[1,2-a]pyridin-2-yl)-3-methyl-6-(trifluoromethyl)imidazo[4,5-c]pyridine]	–	–	–	–	chromatographic logP [2, 5]: 2.38
CCSc1c(-c2nc3cc(C(F)(F)F)ncc3n2C)nc2c(Cl)cccn12 [Example I-14]	3.33	3.34	–	–	–
CCOC(=O)c1nc2ccccn2c1S(=O)(=O)CC [XXIV-1, Ethyl 3-(ethylsulphonyl)imidazo[1,2-a]pyridine-2-carboxylate]	–	–	–	–	chromatographic logP [2, 5]: 1.52
O=C(O)c1nc2cc(C(F)(F)F)ccn2c1Cl [III-1, 3-Chloro-7-(trifluoromethyl)imidazo[1,2-a]pyridine-2-carboxylic acid]	–	–	–	–	chromatographic logP [2, 6]: 1.5
CCSc1c(-c2nc3cc(C(F)(F)F)ccc3n2C)nc2cc(C)ccn12 [Example I-37]	3.41	–	–	–	–

The next lines start with results.

LOGP_HCOOH [2, 4]	LOGP_NEUTRAL ([2]; neutral range, 55° C.)	Compound	efficacy [1] [%]	efficacy ([3]; 500 g/ha) [%]	further results
3.34	–	CCS(=O)(=O)c1c(-c2nc3cc(C(F)(F)F)ccc3n2C)nc2ccc(Cl)cn12 [Example I-42]	100	100	–
4.12	–	CCSc1c(-c2nc3cc(C(F)(F)F)ccc3n2C)nc2ccc(Cl)cn12 [Example I-29]	100	100	–
3.25	–	CC[S+]([O-])c1c(-c2nc3cc(C(F)(F)F)ncc3n2C)nc2ccc(C(F)(F)F)cn12 (stereo not drawn) [Example I-8]	100	100	–
3.21	3.20	CCS(=O)(=O)c1c(-c2nc3cc(C(F)(F)F)cnc3s2)nc2ccccn12 [Example I-51]	–	–	–
3.51	–	CCS(=O)(=O)c1c(-c2nc3cc(C(F)(F)F)cnc3o2)nc2ccc(C(F)(F)F)cn12 [Example I-47]	83	100	–
3.81	3.75	CCSc1c(-c2nc3cc(C(F)(F)F)ncc3n2C)nc2ccc(C(F)(F)F)cn12 [Example I-5]	100	–	–
3.57	–	CCSc1c(-c2nc3cc(C(F)(F)F)ccc3n2C)nc2ccc(C)cn12 [Example I-38]	–	–	–
3.70	–	CCS(=O)(=O)c1c(-c2nc3cc(C(F)(F)F)ccc3n2C)nc2ccc(C(F)(F)F)cn12 [Example I-36]	100	100	–
2.92	2.90	CCS(=O)(=O)c1c(-c2nc3cc(C(F)(F)F)ncc3n2C)nc2c(C(F)(F)F)cccn12 [Example I-24]	100	100	–
4.47	–	CCSc1c(-c2nc3cc(C(F)(F)F)ccc3n2C)nc2ccc(C(F)(F)F)cn12 [Example I-28]	100	–	–
4.50	–	CCSc1c(-c2nc3cc(C(F)(F)F)ccc3n2C)nc2cc(C(F)(F)F)ccn12 [Example I-30]	100	83	–
2.89	–	CCS(=O)(=O)c1c(-c2nc3cc(C(F)(F)F)cnc3o2)nc2ccc(C)cn12 [Example I-56]	–	–	–
2.92	2.94	CCS(=O)(=O)c1c(-c2nc3cc(C(F)(F)F)ccc3o2)nc2ccccn12 [Example I-12]	83	83	–
3.60	–	CCS(=O)(=O)c1c(-c2nc3cc(C(F)(F)F)ccc3s2)nc2ccccn12 [Example I-43]	–	–	efficacy ([3]; 100 g/ha): 83%
4.14	–	CCSc1c(-c2nc3cc(C(F)(F)F)cnc3o2)nc2cc(C(F)(F)F)ccn12 [Example I-50]	100	100	–
2.30	2.29	CCS(=O)(=O)c1cccn2c(S(=O)(=O)CC)c(-c3nc4cc(C(F)(F)F)ncc4n3C)nc12 [Example I-39]	100	100	–
2.53	2.52	CCS(=O)(=O)c1c(-c2nc3cc(C(F)(F)F)cnc3o2)nc2ccccn12 [Example I-44, 2-[3-(Ethylsulphonyl)imidazo[1,2-a]pyridin-2-yl]-6-(trifluoromethyl) [1,3]oxazolo[5,4-b]pyridine]	83	100	chromatographic logP [2, 5]: 2.52
4.11	–	CCSc1c(-c2nc3cc(C(F)(F)F)cnc3o2)nc2cccc(C(F)(F)F)n12 [Example I-57]	–	–	–
4.09	–	CCSc1c(-c2nc3cc(C(F)(F)F)ccc3n2C)nc2cccc(C(F)(F)F)n12 [Example I-27]	–	–	–
3.50	–	CCSc1c(-c2nc3cc(C(F)(F)F)ncc3n2C)nc2cccc(C(F)(F)F)n12 [Example I-20]	–	–	–
3.53	–	CCS(=O)(=O)c1c(-c2nc3cc(C(F)(F)F)cnc3o2)nc2cc(C(F)(F)F)ccn12 [Example I-49]	100	100	–
4.14	–	CCSc1c(-c2nc3cc(C(F)(F)F)cnc3o2)nc2ccc(C(F)(F)F)cn12 [Example I-58]	–	–	–
–	3.15	CCSc1c(-c2nc3cc(C(F)(F)F)cnc3o2)nc2ccccn12 [Example I-60, 2-[3-(Ethylsulphanyl)imidazo[1,2-a]pyridin-2-yl]-6-(trifluoromethyl) [1,3]oxazolo[5,4-b]pyridine]	–	–	chromatographic logP [2, 7]: 3.2; chromatographic logP [2, 5]: 3.15
3.80	3.80	CCSc1c(-c2nc3cc(C(F)(F)F)ncc3n2C)nc2cc(C(F)(F)F)ccn12 [Example I-16]	100	100	–
